Data as given in patent US7604955B2, “Immunoglobulin E vaccines and methods of use thereof” (priority 2001, dated 2009).
Square brackets hold non-standard residues; d marks the D form. Ends that are not written are not given here. Vat = not defined here

Key:
[1] = system: P815 murine mastocytoma cells; experiment: Chromium release assay: CTL from peptide-immunized BALB/c mice against peptide-contacted P815 cells; type: cell-based, mouse; details: for CTL response cytotoxic to target cells displaying the peptide (specific lysis): BALB/c mice immunized with 30 micrograms peptide + OVAp in DOTAP liposomes, targets contacted with same peptide and interferon-gamma
Method: The test peptides p 1 and p2 were evaluated for the ability to elicit in mice a cytotoxic T-lymphocyte response to naturally presented immunoglobulin E peptides. Eight-week old BALB/c mice in groups of four were each immunized with 30 micrograms of one of the test peptides p1 or p2, together with 30 micrograms of the co-stimulatory factor OVAp (ovalbumin peptide) (Schimokevitz, 1984, J. Immunol., 133:2067), an oligopeptide consisting of the sequence […](SEQ ID NO. 3), in N-[1-(-2,3-dioleoyloxy)propyl]-N,N,N-trimethylammonium methylsulfate (DOTAP, purchased from Boehringer Mannheim, Indianapolis, Ind.) cationic liposomes. Two weeks after the first immunization, mice in each respective group were immunized a second time with the appropriate test peptide (p1 or p2) that had been used in the initial immunization. Two weeks after the second immunization, 5×10^6 spleen cells were removed from a pool of two to four mice, established in vitro, and re-stimulated with the respective test peptide in vitro for seven days. The cytotoxic T-lymphocytes thus obtained were tested using a standard chromium release assay (Colligan et al. 2002, Current Protocols in Immunology, 3.11) for their ability as effector cells to lyse target cells. The target cells consisted of P815 murine mastocytoma cells that had been contacted with the appropriate test peptide (p1 or p2) and treated overnight with 50 units per milliliter interferon-gamma to facilitate processing of the test peptide. Effector cells (E) and target cells (T) were mixed at different E/T ratios for 4 hours. The specific lysis was determined by the following formula: [(experimental release−spontaneous release)/(maximal release−spontaneous release)]×100.
The test peptide p3 was similarly evaluated for the ability to elicit a cytotoxic T-lymphocyte response in mice to naturally processed and presented immunoglobulin E peptides. […] The specific lysis was determined by the following formula: [(experimental release−spontaneous release)/(maximal release−spontaneous release)]×100.

[2] = system: LPS and IL-4 stimulated B-lymphocyte cultures; experiment: Polyclonal IgE production by LPS and IL-4 stimulated B-lymphocyte cultures with CTL (ELISA); type: cell-based, mouse; details: CTL from mice immunized with only OVAp in DOTAP liposomes
Method: In a second experiment, BALB/c splenic B-lymphocytes were enriched by magnetic beads coated with an antibody against the B-lymphocyte-specific cell surface antigen B220. To assess CTL effects on polyclonal IgE production, 3×10^5 normal B-lymphocytes were added to either 3×10^6 p3-activated spleen cells from mice immunized with test peptide p3 together with the co-stimulatory factor OVAp in DOTAP liposomes, or to 3×10^6 p3-activated spleen cells from mice immunized with only the co-stimulatory factor OVAp in DOTAP liposomes as a control. The co-cultures were then stimulated with 20 micrograms per milliliter lipopolysaccharide (LPS) and 250 units per milliliter murine recombinant interleukin-4 (IL-4). Two days later, the culture supernatants were harvested. Immunoglobulin E levels were determined using a commercial double-sandwich ELISA assay (catalogue number 2655KI, PharMingen).

[3] = system: KLH-specific IgE; experiment: Allergen-specific (KLH-specific) IgE in vivo by passive cutaneous anaphylaxis (PCA); design: species or system mouse; details: BALB/c mice immunized with only OVAp in liposomes, KLH/alum challenge; pooled blood
Method: In a third experiment, the effect of immunoglobulin E peptide immunization on production of allergen-specific IgE in vivo was determined. Adult BALB/c mice (5/group) were immunized twice with either the test peptide p3 or the test peptide p1, together with the co-stimulatory factor OVAp in DOTAP liposomes, or with only the co-stimulatory factor OVAp in DOTAP liposomes. Mice immunized with saline served as control. Seven days after the second immunization, mice were challenged with 1 microgram keyhole limpet hemocyanin (KLH) in 2 milligrams alum intraperitoneally four times at a 10 day interval, and the allergen-specific (KLH-specific) IgE in pooled blood was then determined by passive cutaneous anaphylaxis (PCA) reaction. […] Reduction of allergen-specific PCA correlated directly with the elicitation of IgE peptide-specific cytotoxic T-lymphocytes in vitro (as depicted in FIG. 3B).

[4] = system: murine EL-4 lymphoma cells; experiment: Chromium release assay: CTL from immunized C57BL/6 mice against p4-contacted EL-4 cells; type: cell-based, mouse; details: C57BL/6 mice immunized with p4 with OVAp; p4-contacted EL-4 targets
Source text: Groups consisting each of five C57BL/6 mice were immunized with either 30 micrograms of the test peptide p4 with 30 micrograms of the co-stimulatory factor OVAp, or with 30 micrograms of the test peptide p5 delivered in 30 micrograms DOTAP liposomes. Two weeks after the first immunization, mice in each respective group were immunized a second time with the appropriate test peptide formulation (p4 plus OVAp, or p5 in DOTAP liposomes) that had been used in the initial immunization. Two weeks after the second immunization, 5×10^6 spleen cells were removed from a pool of two to four mice, established in vitro, and re-stimulated with the appropriate test peptide (p4 or p5) in vitro for seven days. The cytotoxic T-lymphocytes thus obtained were tested using a standard chromium release assay for their ability as effector cells to lyse target cells. The target cells consisted of murine EL-4 lymphoma cells, which display the major histocompatibility complex class I molecules H-2K^b and H-2D^b, and that had been contacted with the test peptide p4 and treated overnight with 50 units per milliliter interferon-gamma. Effector cells (E) and target cells (T) were mixed at different E/T ratios for 4 hours. The specific lysis was determined by the following formula: [(experimental release−spontaneous release)/(maximal release−spontaneous release)]×100.

[5] = system: HLA-A2.1; experiment: HLA-A2.1 cell surface expression in RMA-S-A2.1 cells (FACS); type: cell-based, human; details: for Increase of HLA-A2.1-specific fluorescence intensity: RMA-S-A2.1 cells, 50 micromoles per liter peptide, 37 C overnight, FITC anti-HLA-A2.1
Method: Cells were pooled from the duplicate cultures and about 1×10^6 cells were incubated with 2 micrograms per milliliter fluorescein isothiocyanate-labelled anti-HLA-A2.1 antibody (catalogue number 32294x, PharMingen) at 4° C. for 30 min. Fluorescence-activated cell sorting (FACS) analysis was performed on a FACScan (Becton-Dickinson). About ten thousand events were collected and analyzed by CELLQuest software (version 1.2.2, BD Biosciences).

ISQAVHAAHAEINEAGR [OVAp, co-stimulatory factor]
CTL response against p3-treated P815 target cells ([1]; BALB/c mice immunized with OVAp in liposomes only): did not induce a substantial CTL-response | immunoglobulin E production in vitro [2]: did not decrease immunoglobulin E production | KLH-specific IgE PCA titre [3]: 160

IYGHILNDV [p2, lie Tyr Gly His li0e Leu Asn Asp Val]
CTL response cytotoxic to target cells displaying the peptide (specific lysis) [1]: able to elicit a CTL response

Ile Gln Leu Tyr Cys Phe Ile Try Gly His Ile Leu Asn Asp Val Ser Val (IQLYCFIYGHILNDVSV; Mouse (Mus musculus)) [p4]
immunoglobulin E-specific CTL response [4]: comparable levels of immunoglobulin E-specific CTL response

LLTVSGAWA [539.8]
effect of exogenous human beta-2 microglobulin on surface expression of HLA-A2.1 ([5]; RMA-S-A2.1 cells incubated with peptide in presence versus absence of human beta-2 microglobulin): did not substantially enhance surface expression of HLA-A2.1 | Increase of HLA-A2.1-specific fluorescence intensity [5]: one log

LYCFIYGHI [p1]
CTL response cytotoxic to target cells displaying the peptide (specific lysis) [1]: able to elicit a CTL response

QLPDARHST [539.9]
Increase of HLA-A2.1-specific fluorescence intensity [5]: one log

TQSPSVFPL [539.10]
Increase of HLA-A2.1-specific fluorescence intensity [5]: one log

Trp Val Asp Asn Lys Thr Phe Ser Vat (WVDNKTFS[Vat]; reading uncertain; also: printed as Trp Val Asp Asn Lys Thr Phe Ser Vat) [539.12]
Increase of HLA-A2.1-specific fluorescence intensity [5]: one log

WLSDRTYTC [539.11]
Increase of HLA-A2.1-specific fluorescence intensity [5]: one log
